From US9326961B2, “Diet and methods for improving learning capacity, mood and behavior in mammals” (COAPE, LTD, priority 2010, dated 2016)

What was measured:
[1] = tested on: dogs (slow learners); test: Discrimination learning, T-maze test (Test B) after three weeks on assigned diet; assay type: in vivo, dog; settings: diet supplementation, compared with adding tryptophan to the diet
Description: To determine the effect of diet on learning capability, 81 dogs of various ages, types and sex were recruited from dog training clubs and colleagues of the experimenter; however, one dog had to be withdrawn from the study. Inclusion into the study required that the dogs were not receiving any veterinary treatment or medication for behavioral problems. All dogs were in good health, having been fully vaccinated and wormed. Dogs were tested in simple tests that required no lengthy training time. […] Each dog's baseline learning capability was established on its performance in Test A. It was determined that 15 of the dogs were fast learners, while 65 were slow learners.
Each owner was supplied an information sheet advising how to introduce the new diet over a period of days, to ensure that no digestion problems occurred from a sudden change of food. The dogs remained on the assigned diet for a period of three weeks and their learning capability was re-evaluated according to their performance in Test B. Latency to learn the task was used as a measure of learning capability and specific displacement activities were monitored to evaluate the effect on various behavior patterns. […]
The dogs' latency to learn was measured in the time it took them, to achieve success, measured as 100% of correct responses in five consecutive trials. […]

[2] = tested on: horse; settings: horses, cited from earlier work

Compound | enhancing serotonin levels in the brain, as measured by improved behavior and learning ability [1] | toxicity ([2]; high doses given orally, presumably toxic hindgut metabolite) | effect on endurance capacity ([2]; high doses) | behavioral effect ([2]; low doses)
CC(C)C[C@H](N)C(=O)O [leucine] | as effective in enhancing serotonin levels in the brain as adding tryptophan to the diet |  |  | 
N[C@@H](Cc1c[nH]c2ccccc12)C(=O)O [Tryptophan] |  | may cause hemolytic anemia | reduce endurance capacity | mild excitement
